Results from US10071998B2, “Iminothiadiazine dioxides bearing an amine-linked substituent as BACE inhibitors, compositions, and their use” (Merck Sharp & Dohme Corp., priority 2015, dated 2018).
Like-named read-outs stand apart in the source and are kept apart here.

What was measured:
[1] = target: Recombinant human soluble BACE-1 catalytic domain (Homo sapiens (Human), UniProt P56817); experiment: BACE-1 Ki Assay (BACE-1 HTRF FRET Assay); format: biochemical
Method: Assay 1: BACE-1 Ki Assay (BACE-1 HTRF FRET Assay)
The compounds of the invention were assessed for their ability to inhibit BACE-1 using the following assay.
The following reagents were used in this assay. Na^+-Acetate pH 5.0; 1% Brij-35; Glycerol; Dimethyl Sulfoxide (DMSO); Recombinant human soluble BACE-1 catalytic domain (>95% pure); APP Swedish mutant peptide substrate (QSY7-APP^swe-Eu): QSY7-EISEVNLDAEFC-Europium-amide.
A homogeneous time-resolved FRET assay can be used to determine IC50 values for inhibitors of the soluble human BACE-1 catalytic domain. This assay monitors the increase of 620 nm fluorescence that resulted from BACE-1 cleavage of an APPswedish APP^swe mutant peptide FRET substrate (QSY7-EISEVNLDAEFC-Europium-amide). This substrate contains an N-terminal QSY7 moiety that serves as a quencher of the C-terminal Europium fluorophore (620 nm Em). In the absence of enzyme activity, 620 nm fluorescence is low in the assay and increased linearly over 3 hours in the presence of uninhibited BACE-1 enzyme. Inhibition of BACE-1 cleavage of the QSY7-APP^swe-Eu substrate by inhibitors is manifested as a suppression of 620 nm fluorescence.
Varying concentrations of inhibitors at 3× the final desired concentration in a volume of 10 ul are preincubated with purified human BACE-1 catalytic domain (3 nM in 10 μl) for 30 minutes at 30° C. in reaction buffer containing 20 mM Na-Acetate pH 5.0, 10% glycerol, 0.1% Brij-35 and 7.5% DSMO. Reactions are initiated by addition of 10 μl of 600 nM QSY7-APP^swe-Eu substrate (200 nM final) to give a final reaction volume of 30 μl in a 384 well Nunc HTRF plate. The reactions are incubated at 30° C. for 1.5 hours. The 620 nm fluorescence is then read on a Rubystar HTRF plate reader (BMG Labtechnologies) using a […] delay followed by a 400 millisecond acquisition time window. Inhibitor IC50 values are derived from non-linear regression analysis of concentration response curves. Ki values are then calculated from IC50 values using the Cheng-Prusoff equation using a previously determined […] of 8 μM for the QSY7-APP^swe-Eu substrate at BACE-1. The example compounds of the invention were measured in this assay.

[2] = target: purified human autoBACE-2 (Homo sapiens (Human), UniProt Q9Y5Z0); experiment: BACE-2 Assay (BACE-HTRF assay); format: biochemical; settings: Table 1; Ki calculated from IC50 with Cheng-Prusoff equation; read-out: BACE2 Ki
Method: Inhibitor IC50s, at purified human autoBACE-2 are determined in a time-resolved endpoint proteolysis assay that measures hydrolysis of the QSY7-EISEVNLDAEFC-Eu-amide FRET peptide substrate (BACE-HTRF assay). BACE-mediated hydrolysis of this peptide results in an increase in relative fluorescence (RFU) at 620 nm after excitation with 320 nm light. Inhibitor compounds, prepared at 3× the desired final concentration in 1× BACE assay buffer (20 mM sodium acetate pH 5.0, 10% glycerol, 0.1% Brij-35) supplemented with 7.5% DMSO are pre-incubated with an equal volume of autoBACE-2 enzyme diluted in 1×BACE assay buffer (final enzyme concentration 1 nM) in black 384-well NUNC plates for 30 minutes at 30° C. The assay is initiated by addition of an equal volume of the QSY7-EISEVNLDAEFC-Eu-amide substrate (200 nM final concentration, Km=8 μM […] for autoBACE-2) prepared in 1×BACE assay buffer supplemented with 7.5% DMSO and incubated for 90 minutes at 30° C. DMSO is present at 5% final concentration in the assay. Following laser excitation of sample wells at 320 nm, the fluorescence signal at 620 nm is collected for 400 ms following a 50 μs delay on a RUBYstar HTRF plate reader (BMG Labtechnologies). Raw RFU data is normalized to maximum (1.0 nM BACE/DMSO) and minimum (no enzyme/DMSO) RFU values. IC50 values are determined by nonlinear regression analysis (sigmoidal dose response, variable slope) of percent inhibition data with minimum and maximum values set to 0 and 100 percent respectively. Similar IC50s are obtained when using raw RFU data. The Ki values are calculated from the IC50 using the Cheng-Prusoff equation.

[3] = Table 1, Ki calculated from IC50 with Cheng-Prusoff equation, read-out: BACE1 Ki
[4] = Table 3, comparator compounds of WO2011044181, read-out: BACE-1 Ki Nm

Sequence of Recombinant human soluble BACE-1 catalytic domain (P56817 75-416): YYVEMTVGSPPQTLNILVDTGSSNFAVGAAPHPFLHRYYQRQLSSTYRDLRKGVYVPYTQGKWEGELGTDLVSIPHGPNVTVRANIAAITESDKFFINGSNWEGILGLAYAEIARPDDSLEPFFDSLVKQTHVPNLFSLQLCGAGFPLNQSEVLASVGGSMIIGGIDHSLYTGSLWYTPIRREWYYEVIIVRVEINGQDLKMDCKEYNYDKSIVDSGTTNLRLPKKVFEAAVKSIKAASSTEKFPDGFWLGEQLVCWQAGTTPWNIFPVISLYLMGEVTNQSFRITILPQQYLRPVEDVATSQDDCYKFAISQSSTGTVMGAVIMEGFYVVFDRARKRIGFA
Sequence of purified human autoBACE-2 (Q9Y5Z0 63-473): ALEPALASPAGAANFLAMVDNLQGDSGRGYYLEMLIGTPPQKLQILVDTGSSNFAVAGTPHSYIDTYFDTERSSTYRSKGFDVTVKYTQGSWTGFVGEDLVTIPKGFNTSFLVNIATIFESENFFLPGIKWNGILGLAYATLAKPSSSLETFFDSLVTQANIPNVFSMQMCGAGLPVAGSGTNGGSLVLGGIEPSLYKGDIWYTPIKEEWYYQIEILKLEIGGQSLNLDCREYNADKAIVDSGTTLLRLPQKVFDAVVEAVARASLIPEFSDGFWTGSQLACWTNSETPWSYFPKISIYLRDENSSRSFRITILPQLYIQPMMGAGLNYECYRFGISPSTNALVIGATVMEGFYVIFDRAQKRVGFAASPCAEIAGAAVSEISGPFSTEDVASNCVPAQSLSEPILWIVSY

Row | SMILES | Ki [1, 3] [nM] | Ki [2] [nM] | Ki [1, 4] [nM]
1 | CN1C(=N)N[C@](C)(c2cc(N[C@H]3CCc4cc(C#N)cnc43)ccc2F)CS1(=O)=O [Example 18, (S)-7-((4-fluoro-3-((R)-3-imino-2,5-dimethyl-1,1-dioxido-1,2,4-thiadiazinan-5-yl)phenyl)amino)-6,7-dihydro-5H-cyclopenta[b]pyridine-3-carbonitrile] | 3.1 | 22.3 | –
2 | CN1C(=N)N[C@](C)(c2cccc(Nc3ccccc3C#N)n2)CS1(=O)=O [103b (Table IXa), reference compound] | – | – | 514
3 | CN1C(=N)N[C@](C)(c2cc(Nc3nccc4cc(Cl)cnc34)ccc2F)CS1(=O)=O [Example 1, 3-chloro-N-{4-fluoro-3-[(5R)-3-imino-2,5-dimethyl-1,1-dioxido-1,2,4-thiadiazinan-5-yl]phenyl}-1,7-naphthyridin-8-amine] | 1.2 | 0.22 | –
4 | CN1C(=N)N[C@](C)(c2cc(Nc3cccc4c3OC(F)(F)O4)ccc2F)CS1(=O)=O [103 (Scheme 18), reference compound] | – | – | 42
5 | CN1C(=N)N[C@](C)(c2cccc(Nc3cccc4c3OC(F)(F)O4)n2)CS1(=O)=O [163 (Table XXI), reference compound] | – | – | 4700
6 | COc1cccnc1Nc1cccc([C@]2(C)CS(=O)(=O)N(C)C(=N)N2)n1 [165 (as listed on page 224), reference compound] | – | – | 2590
7 | CN1C(=N)N[C@](C)(c2cccc(Nc3ncccc3C#N)n2)CS1(=O)=O [164 (Table XXI), reference compound] | – | – | 508
8 | COc1ccccc1Nc1cc([C@]2(C)CS(=O)(=O)N(C)C(=N)N2)ccn1 [167 (Table XXI), reference compound] | – | – | 344
9 | CN1C(=N)N[C@](C)(c2cc(N[C@H]3CCc4cc(Cl)ccc43)ccc2F)CS1(=O)=O [Example 17, (R)-5-(5-(((S)-5-chloro-2,3-dihydro-1H-inden-1-yl)amino)-2-fluorophenyl)-3-imino-2,5-dimethyl-1,2,4-thiadiazinane 1,1-dioxide] | 10.2 | 16.6 | –
10 | CN1C(=N)N[C@](C)(c2cc(Nc3ncnc4cc(Br)cnc34)ccc2F)CS1(=O)=O [Example 3, 7-bromo-N-{4-fluoro-3-[(5R)-3-imino-2,5-dimethyl-1,1-dioxido-1,2,4-thiadiazinan-5-yl]phenyl}pyrido[3,2-d]pyrimidin-4-amine] | 2.8 | 0.81 | –
11 | COc1ccccc1Nc1cccc([C@]2(C)CS(=O)(=O)N(C)C(=N)N2)c1 [103a (Table IXa), reference compound] | – | – | 69
12 | CN1C(=N)N[C@](C)(c2cc(N[C@H]3CCCc4cc(Br)cnc43)ccc2F)CS1(=O)=O [Example 20, (R)-5-(5-(((S)-3-bromo-5,6,7,8-tetrahydroquinolin-8-yl)amino)-2-fluorophenyl)-3-imino-2,5-dimethyl-1,2,4-thiadiazinane 1,1-dioxide] | 128 | 43.1 | –
13 | COc1cccnc1Nc1cc([C@]2(C)CS(=O)(=O)N(C)C(=N)N2)ccn1 [166 (Table XXI), reference compound] | – | – | 41
14 | CN1C(=N)N[C@](C)(c2cc(N[C@@H]3CCc4cc(C#N)cnc43)ccc2F)CS1(=O)=O [Example 19, (R)-7-((4-fluoro-3-((R)-3-imino-2,5-dimethyl-1,1-dioxido-1,2,4-thiadiazinan-5-yl)phenyl)amino)-6,7-dihydro-5H-cyclopenta[b]pyridine-3-carbonitrile] | 81 | 42.6 | –
15 | CN1C(=N)N[C@](C)(c2cc(N[C@@H]3CCc4ncc(Cl)cc43)ccc2F)CS1(=O)=O [Example 15, (R)-5-(5-(((R)-3-chloro-6,7-dihydro-5H-cyc1openta[b]pyridin-5-yl)amino)-2-fluorophenyl)-3-imino-2,5-dimethyl-1,2,4-thiadiazinane 1,1-dioxide] | 41.2 | 124 | –
16 | CN1C(=N)N[C@](C)(c2cc(N[C@@H]3CCc4ncc(C(F)(F)F)cc43)ccc2F)CS1(=O)=O [Example 16, (R)-5-(2-fluoro-5-(((R)-3-(trifluoromethyl)-6,7-dihydro-5H-cyclopenta[b]pyridin-5-yl)amino)phenyl)-3-imino-2,5-dimethyl-1,2,4-thiadiazinane 1,1-dioxide] | 57.3 | 242 | –
17 | COc1ccccc1Nc1cccc([C@]2(C)CS(=O)(=O)N(C)C(=N)N2)n1 [162 (Scheme 40), reference compound] | – | – | 3760
18 | CN1C(=N)N[C@](C)(c2cc(Nc3nccc4cc(Br)cnc34)ccc2F)CS1(=O)=O [Example 2, 3-bromo-N-{4-fluoro-3-[(5R)-3-imino-2,5-dimethyl-1,1-dioxido-1,2,4-thiadiazinan-5-yl]phenyl}-1,7-naphthyridin-8-amine] | 1.5 | 0.38 | –
19 | COc1cnc2c(Nc3ccc(F)c([C@]4(C)CS(=O)(=O)N(C)C(=N)N4)c3)ncnc2n1 [Example 13, N-{4-fluoro-3-[(5R)-3-imino-2,5-dimethyl-1,1-dioxido-1,2,4-thiadiazinan-5-yl]phenyl}-7-methoxypteridin-4-amine] | 10.6 | 15.4 | –
20 | COc1cnc2c(Nc3cc([C@]4(C)CS(=O)(=O)N(C)C(=N)N4)c(F)cn3)nccc2c1 [Example 5, N-{5-fluoro-4-[(5R)-3-imino-2,5-dimethyl-1,1-dioxido-1,2,4-thiadiazinan-5-yl]pyridin-2-yl}-3-methoxy-1,7-naphthyridin-8-amine] | 16.2 | 4.5 | –
